In assay [1] the target is T1, DDR1 (Homo sapiens, UniProt Q08345). Briefly: DDR1 binding assay (LanthaScreen Europium Kinase Binding assay). Also on record: purchased Carna Biosciences. Conditions: binding assay, 5 nM DDR1, 20 nM Kinase Tracer 178; Ki from IC50 by Cheng-Prusoff; read-out: Ki DDR1. The procedure, abridged:
(§1)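 TR-FRET tracer-displacement format: 665/615 nm emission ratio (340 nm excitation) gave IC50 by 4-parameter fit, then Ki via Cheng-Prusoff. Each kinase at 5 nM with 2 nM Eu-anti-GST antibody and Tracer 178 (DDR1 20 nM, DDR2 10 nM), 1 h, room temperature, HEPES pH 7.5 buffer.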
A general note: In TR-FRET formats the signal depends on donor and acceptor labels being close together.

For assay [2], the target named is T2, DDR2 (Homo sapiens, UniProt Q16832).
T2 sequence (Q16832 22-855): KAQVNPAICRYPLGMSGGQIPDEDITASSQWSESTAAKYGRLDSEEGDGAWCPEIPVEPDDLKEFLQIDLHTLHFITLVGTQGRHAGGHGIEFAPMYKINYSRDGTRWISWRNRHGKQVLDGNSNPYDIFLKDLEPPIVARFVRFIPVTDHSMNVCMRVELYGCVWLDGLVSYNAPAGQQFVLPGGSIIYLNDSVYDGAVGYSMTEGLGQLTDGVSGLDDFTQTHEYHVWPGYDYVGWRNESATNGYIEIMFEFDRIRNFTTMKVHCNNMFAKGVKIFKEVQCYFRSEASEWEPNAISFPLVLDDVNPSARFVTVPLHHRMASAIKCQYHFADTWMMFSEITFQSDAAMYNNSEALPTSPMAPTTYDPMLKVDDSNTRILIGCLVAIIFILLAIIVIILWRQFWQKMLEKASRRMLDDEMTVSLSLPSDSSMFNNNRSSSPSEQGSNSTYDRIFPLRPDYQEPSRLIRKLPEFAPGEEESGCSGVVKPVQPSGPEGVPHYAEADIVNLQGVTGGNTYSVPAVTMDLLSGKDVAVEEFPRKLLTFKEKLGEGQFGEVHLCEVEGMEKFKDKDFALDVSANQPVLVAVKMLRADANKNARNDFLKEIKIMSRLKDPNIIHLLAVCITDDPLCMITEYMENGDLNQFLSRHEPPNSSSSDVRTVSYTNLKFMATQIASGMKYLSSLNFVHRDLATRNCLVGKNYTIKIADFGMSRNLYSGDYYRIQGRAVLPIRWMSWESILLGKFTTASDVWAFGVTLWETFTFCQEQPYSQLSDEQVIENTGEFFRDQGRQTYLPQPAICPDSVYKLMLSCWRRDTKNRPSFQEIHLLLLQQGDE
As to the kind of experiment: DDR2 binding assay (LanthaScreen Europium Kinase Binding assay). The following applies: binding assay, 5 nM DDR2, 10 nM Kinase Tracer 178; Ki from IC50 by Cheng-Prusoff; read-out: Ki DDR2. The arrangement: purchased Life Technologies. An outline of the steps:
as §1

Assay [3] concerns the target T1, DDR1. Briefly: DDR1 cell based assay (PathHunter U2OS DDR1 assay). Also on record: host or cells: U2OS-DDR1 (PathHunter). Conditions: U2OS-DDR1 cells, bovine Type II Collagen 20 μg/ml. An outline of the steps:
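Receptor activation measured by enzyme-fragment complementation luminescence in engineered U2OS cells. Compound added 30 min before overnight challenge with 20 μg/ml bovine collagen II; data scaled between vehicle and collagen-stimulated controls, IC50 derived by four-parameter variable-slope fitting.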

Each structure is given as a SMILES string.

T1 sequence (Q08345 19-913): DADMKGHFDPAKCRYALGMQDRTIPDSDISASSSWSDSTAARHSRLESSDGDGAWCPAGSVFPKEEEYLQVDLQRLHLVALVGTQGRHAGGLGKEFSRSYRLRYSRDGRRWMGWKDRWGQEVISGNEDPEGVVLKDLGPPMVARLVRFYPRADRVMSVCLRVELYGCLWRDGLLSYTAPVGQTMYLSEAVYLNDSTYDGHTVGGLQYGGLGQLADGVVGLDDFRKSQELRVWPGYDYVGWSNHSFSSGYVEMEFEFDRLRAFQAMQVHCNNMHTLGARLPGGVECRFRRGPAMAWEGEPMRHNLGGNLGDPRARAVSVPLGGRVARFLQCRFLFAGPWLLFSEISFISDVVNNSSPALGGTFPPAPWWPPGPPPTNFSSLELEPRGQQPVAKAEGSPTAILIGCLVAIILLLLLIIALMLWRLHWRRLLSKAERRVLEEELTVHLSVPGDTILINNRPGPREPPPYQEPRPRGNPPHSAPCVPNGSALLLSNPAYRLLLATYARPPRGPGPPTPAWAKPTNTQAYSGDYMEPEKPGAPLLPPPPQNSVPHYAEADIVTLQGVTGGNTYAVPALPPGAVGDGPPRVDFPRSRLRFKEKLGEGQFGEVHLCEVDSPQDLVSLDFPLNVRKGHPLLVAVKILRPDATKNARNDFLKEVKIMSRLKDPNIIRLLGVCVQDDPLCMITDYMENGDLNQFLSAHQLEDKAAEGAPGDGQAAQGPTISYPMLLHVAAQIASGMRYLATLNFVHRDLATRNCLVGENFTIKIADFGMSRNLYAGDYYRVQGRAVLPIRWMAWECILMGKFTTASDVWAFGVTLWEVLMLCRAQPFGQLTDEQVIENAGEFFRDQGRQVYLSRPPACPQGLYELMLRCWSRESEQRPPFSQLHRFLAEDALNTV

Turning to `CC(C)(c1cc(NC(=O)c2csc3c2CCN(C(=O)c2cnn4ccncc24)C3)no1)C(F)(F)F` [Example 126, 6-(pyrazolo[1,5-a]pyrazine-3-carbonyl)-N-(5-(1,1,1-trifluoro-2-methylpropan-2-yl)isoxazol-3-yl)-4,5,6,7-tetrahydrothieno[2,3-c]pyridine-3-carboxamide], the Ki in assay [1] and in assay [2] was under 25 nM throughout. Besides, the IC50 (in general, the concentration needed to halve the response being measured) in assay [3] was in the range of 25 to 50 nM.

Take `O=C(Nc1cncc(C(F)(F)F)c1)c1csc2c1CCN(C(=O)c1cnc3cnccn13)C2` [Example 127, 6-(imidazo[1,2-a]pyrazine-3-carbonyl)-N-(5-(trifluoromethyl)pyridin-3-yl)-4,5,6,7-tetrahydrothieno[2,3-c]pyridine-3-carboxamide]: the Ki in assay [1] and in assay [2] was under 25 nM in each case. Also, the IC50 in assay [3] fell in the range of 25 to 50 nM.

On to `O=C(Nc1cncc(OC(F)(F)F)c1)c1csc2c1CCN(C(=O)c1cnn3ccncc13)C2` [Example 128, 6-(pyrazolo[1,5-a]pyrazine-3-carbonyl)-N-(5-(trifluoromethoxy)pyridin-3-yl)-4,5,6,7-tetrahydrothieno[2,3-c]pyridine-3-carboxamide], for which the Ki in assay [1] and in assay [2] was under 25 nM in each case. The compound further registered an IC50 in assay [3] of under 25 nM.

Regarding `CN(C)Cc1cc(NC(=O)c2csc3c2CCN(C(=O)c2cnc4ccccn24)C3)cc(C(F)(F)F)n1` [Example 129, N-(2-((dimethylamino)methyl)-6-(trifluoromethyl)pyridin-4-yl)-6-(imidazo[1,2-a]pyridine-3-carbonyl)-4,5,6,7-tetrahydrothieno[2,3-c]pyridine-3-carboxamide], the inhibition constant (Ki) – broadly, the equilibrium dissociation constant of an inhibitor or competing ligand from its target – in assay [1] was under 25 nM; in assay [2], 25 to 50 nM. Besides, the IC50 in assay [3] lay within 25 to 50 nM.

Turning to `CN(C)[C@@H]1CCN(C(=O)c2cc(NC(=O)c3csc4c3CCN(C(=O)c3cnc5ccccn35)C4)cc(C(F)(F)F)c2)C1` [Example 130, (R)-N-(3-(3-(dimethylamino)pyrrolidine-1-carbonyl)-5-(trifluoromethyl)phenyl)-6-(imidazo[1,2-a]pyridine-3-carbonyl)-4,5,6,7-tetrahydrothieno[2,3-c]pyridine-3-carboxamide], the Ki in assay [1] and in assay [2] was under 25 nM throughout. Further, in assay [3], the IC50 was in the range of 50 to 80 nM.

For `N#Cc1cc(NC(=O)c2csc3c2CCN(C(=O)c2cnc4ccccn24)C3)cc(C(F)(F)F)c1` [Example 131, N-(3-cyano-5-(trifluoromethyl)phenyl)-6-(imidazo[1,2-a]pyridine-3-carbonyl)-4,5,6,7-tetrahydrothieno[2,3-c]pyridine-3-carboxamide], the Ki in assay [1] and in assay [2] was under 25 nM each time. For the same compound, in assay [3], the IC50 lay within 25 to 50 nM.

In the case of `O=C(Nc1ccc(CO)c(C(F)(F)F)c1)c1csc2c1CCN(C(=O)c1cnc3ccccn13)C2` [Example 132, N-(4-(hydroxymethyl)-3-(trifluoromethyl)phenyl)-6-(imidazo[1,2-a]pyridine-3-carbonyl)-4,5,6,7-tetrahydrothieno[2,3-c]pyridine-3-carboxamide], the Ki in assay [1] and in assay [2] was under 25 nM each time. Further, in assay [3], the IC50 was under 25 nM.

With `CN(C)Cc1ccc2ncc(C(=O)N3CCc4c(C(=O)Nc5cccc(C(F)(F)F)c5)csc4C3)n2c1` [Example 135, 6-(6-((dimethylamino)methyl)imidazo[1,2-a]pyridine-3-carbonyl)-N-(3-(trifluoromethyl)phenyl)-4,5,6,7-tetrahydrothieno[2,3-c]pyridine-3-carboxamide], the Ki is under 25 nM in assay [1] and 25 to 50 nM in assay [2]. In assay [3], this compound showed an IC50 of 25 to 50 nM.

Consider `O=C(Nc1cccc(C(F)(F)F)c1)c1csc2c1CCN(C(=O)c1cnc3ccc(OCCO)cn13)C2` [Example 137, 6-(6-(2-hydroxyethoxy)imidazo[1,2-a]pyridine-3-carbonyl)-N-(3-(trifluoromethyl)phenyl)-4,5,6,7-tetrahydrothieno[2,3-c]pyridine-3-carboxamide], for which the inhibition constant (Ki) in assay [1] and in assay [2] was under 25 nM throughout. The compound also showed an IC50 in assay [3] of under 25 nM.

With `COCCOc1ccn2c(C(=O)N3CCc4c(C(=O)Nc5cccc(C(F)(F)F)c5)csc4C3)cnc2c1` [Example 138, 6-(7-(2-methoxyethoxy)imidazo[1,2-a]pyridine-3-carbonyl)-N-(3-(trifluoromethyl)phenyl)-4,5,6,7-tetrahydrothieno[2,3-c]pyridine-3-carboxamide], the Ki in assay [1] and in assay [2] was under 25 nM in each case. Also, in assay [3], the IC50 was under 25 nM.

As to `O=C(Nc1cccc(C(F)(F)F)c1)c1csc2c1CCN(C(=O)c1cnc3cc(OCCN4CCOCC4)ccn13)C2` [Example 139, 6-(7-(2-morpholinoethoxy)imidazo[1,2-a]pyridine-3-carbonyl)-N-(3-(trifluoromethyl)phenyl)-4,5,6,7-tetrahydrothieno[2,3-c]pyridine-3-carboxamide], the Ki in assay [1] and in assay [2] was under 25 nM each time. The IC50 in assay [3] is 25 to 50 nM.

For `COc1ccn2ncc(C(=O)N3CCc4c(C(=O)Nc5cncc(C(F)(F)F)c5)csc4C3)c2c1` [Example 140, 6-(5-methoxypyrazolo[1,5-a]pyridine-3-carbonyl)-N-(5-(trifluoromethyl)pyridin-3-yl)-4,5,6,7-tetrahydrothieno[2,3-c]pyridine-3-carboxamide], the Ki in assay [1] and in assay [2] was under 25 nM each time. The IC50 in assay [3] was under 25 nM.

For the compound `O=C(Nc1cncc(C(F)(F)F)c1)c1csc2c1CCN(C(=O)c1cnn3ccsc13)C2` [Example 141, 6-(pyrazolo[5,1-b]thiazole-7-carbonyl)-N-(5-(trifluoromethyl)pyridin-3-yl)-4,5,6,7-tetrahydrothieno[2,3-c]pyridine-3-carboxamide], the Ki in assay [1] and in assay [2] was under 25 nM each time. Further, the IC50 in assay [3] was under 25 nM.

In the case of `COc1ccn2c(C(=O)N3CCc4c(C(=O)Nc5cncc(C(F)(F)F)c5)csc4C3)cnc2c1` [Example 142, 6-(7-methoxyimidazo[1,2-a]pyridine-3-carbonyl)-N-(5-(trifluoromethyl)pyridin-3-yl)-4,5,6,7-tetrahydrothieno[2,3-c]pyridine-3-carboxamide], the Ki in assay [1] and in assay [2] was under 25 nM in each case. For the same compound, the IC50 in assay [3] was in the range of 50 to 80 nM.

As for `Cn1ccn2ncc(C(=O)N3CCc4c(C(=O)Nc5cncc(C(F)(F)F)c5)csc4C3)c12` [Example 143, 6-(1-methyl-1H-imidazo[1,2-b]pyrazole-7-carbonyl)-N-(5-(trifluoromethyl)pyridin-3-yl)-4,5,6,7-tetrahydrothieno[2,3-c]pyridine-3-carboxamide], the Ki in assay [1] and in assay [2] was under 25 nM throughout. The compound further showed an IC50 in assay [3] of under 25 nM.

For `O=C(Nc1cncc(C(F)(F)F)c1)c1csc2c1CCN(C(=O)c1cnc3cc(F)ccn13)C2` [Example 144, 6-(7-fluoroimidazo[1,2-a]pyridine-3-carbonyl)-N-(5-(trifluoromethyl)pyridin-3-yl)-4,5,6,7-tetrahydrothieno[2,3-c]pyridine-3-carboxamide], the Ki in assay [1] and in assay [2] was under 25 nM throughout. In assay [3], this compound showed an IC50 of under 25 nM.

Consider `CN1CCN(c2ccc3ncc(C(=O)N4CCc5c(C(=O)Nc6cc(C(C)(C)C)n(C)n6)csc5C4)n3c2)CC1` [Example 145, N-(5-(tert-butyl)-1-methyl-1H-pyrazol-3-yl)-6-(6-(4-methylpiperazin-1-yl)imidazo[1,2-a]pyridine-3-carbonyl)-4,5,6,7-tetrahydrothieno[2,3-c]pyridine-3-carboxamide], for which the Ki is under 25 nM in assay [1] and 25 to 50 nM in assay [2]. In addition, the IC50 in assay [3] is 25 to 50 nM.

On to `Cc1n[nH]c2ncc(CN3CCc4c(C(=O)Nc5cc(C6CC6)nn5C)csc4C3)cc12` [Example 146, N-(3-cyclopropyl-1-methyl-1H-pyrazol-5-yl)-6-((3-methyl-1H-pyrazolo[3,4-b]pyridin-5-yl)methyl)-4,5,6,7-tetrahydrothieno[2,3-c]pyridine-3-carboxamide], for which the Ki in assay [1] and in assay [2] was under 25 nM each time. The compound also displayed an IC50 in assay [3] of 25 to 50 nM.

These data come from patent US20240391936A1, “TETRAHYDROTHIENO PYRIDINE DERIVATIVES AS DDRS INHIBITORS” (CHIESI FARMACEUTICI S.P.A., priority 2021, published 2024).
